In patent US20230391768A2, “IMIDAZOPYRIDINE DERIVATIVES AND AZA-IMIDAZOPYRIDINE DERIVATIVES AS JANUS KINASE 2 INHIBITORS AND USES THEREOF” (Dana-Farber Cancer Institute, Inc., priority 2018, published 2023):

Columns and labels:
Test in all cases: KINOMEscan
Format in all cases: binding
Conditions in all cases: read-out: percent of control
BRAF = BRAF (Homo sapiens (Human), UniProt P15056)
Description: (§1) In vitro profiling of Compound I-2 (1 μM) was performed using the DiscoveRx KINOMEscan® platform.

AURKC = AURKC (Homo sapiens (Human), UniProt Q9UQB9)
Description: as §1

ERBB4 = ERBB4 (Homo sapiens (Human), UniProt Q15303)
Description: as §1

AKT1 = AKT1 (Homo sapiens (Human), UniProt P31749)
Description: as §1

DMPK = DMPK (Homo sapiens (Human), UniProt Q09013)
Description: as §1

CLK2 = CLK2 (Homo sapiens (Human), UniProt P49760)
Description: as §1

JNK2 = JNK2 (Homo sapiens (Human), UniProt P45984)
Description: as §1

FLT3 (D835Y) = FLT3 (D835Y) (Homo sapiens (Human), UniProt P36888, D835Y)
Description: as §1

TRKA = TRKA (Homo sapiens (Human), UniProt P04629)
Description: as §1

GRK7 = GRK7 (Homo sapiens (Human), UniProt Q8WTQ7)
Description: as §1

CHEK2 = CHEK2 (Homo sapiens (Human), UniProt O96017)
Description: as §1

TTK = TTK (Homo sapiens (Human), UniProt P33981)
Description: as §1

FGFR3 (G697C) = FGFR3 (G697C) (Homo sapiens (Human), UniProt P22607, G697C)
Description: as §1

PCTK2 = PCTK2 (Homo sapiens (Human), UniProt Q00537)
Description: as §1

NEK10 = NEK10 (Homo sapiens (Human), UniProt Q6ZWH5)
Description: as §1

PIK3CA(H1047L) = PIK3CA(H1047L) (Homo sapiens (Human), UniProt P42336, H1047L)
Description: as §1

CSNK1A1 = CSNK1A1 (Homo sapiens (Human), UniProt P48729)
Chain of CSNK1A1 (P48729 whole entry): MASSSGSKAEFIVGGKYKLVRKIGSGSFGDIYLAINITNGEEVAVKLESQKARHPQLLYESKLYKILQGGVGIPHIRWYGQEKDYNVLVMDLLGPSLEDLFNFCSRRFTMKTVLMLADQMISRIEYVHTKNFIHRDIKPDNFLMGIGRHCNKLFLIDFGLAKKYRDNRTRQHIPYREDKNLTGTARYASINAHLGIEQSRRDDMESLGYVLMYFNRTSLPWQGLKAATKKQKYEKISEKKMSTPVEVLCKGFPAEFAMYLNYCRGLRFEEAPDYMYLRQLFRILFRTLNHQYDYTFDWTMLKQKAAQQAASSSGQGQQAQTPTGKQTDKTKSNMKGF
Description: as §1

FLT3 = FLT3 (Homo sapiens (Human), UniProt P36888)
Description: as §1

CDC2L5 = CDC2L5 (Homo sapiens (Human), UniProt Q14004)
Chain of CDC2L5 (Q14004 whole entry, looked up): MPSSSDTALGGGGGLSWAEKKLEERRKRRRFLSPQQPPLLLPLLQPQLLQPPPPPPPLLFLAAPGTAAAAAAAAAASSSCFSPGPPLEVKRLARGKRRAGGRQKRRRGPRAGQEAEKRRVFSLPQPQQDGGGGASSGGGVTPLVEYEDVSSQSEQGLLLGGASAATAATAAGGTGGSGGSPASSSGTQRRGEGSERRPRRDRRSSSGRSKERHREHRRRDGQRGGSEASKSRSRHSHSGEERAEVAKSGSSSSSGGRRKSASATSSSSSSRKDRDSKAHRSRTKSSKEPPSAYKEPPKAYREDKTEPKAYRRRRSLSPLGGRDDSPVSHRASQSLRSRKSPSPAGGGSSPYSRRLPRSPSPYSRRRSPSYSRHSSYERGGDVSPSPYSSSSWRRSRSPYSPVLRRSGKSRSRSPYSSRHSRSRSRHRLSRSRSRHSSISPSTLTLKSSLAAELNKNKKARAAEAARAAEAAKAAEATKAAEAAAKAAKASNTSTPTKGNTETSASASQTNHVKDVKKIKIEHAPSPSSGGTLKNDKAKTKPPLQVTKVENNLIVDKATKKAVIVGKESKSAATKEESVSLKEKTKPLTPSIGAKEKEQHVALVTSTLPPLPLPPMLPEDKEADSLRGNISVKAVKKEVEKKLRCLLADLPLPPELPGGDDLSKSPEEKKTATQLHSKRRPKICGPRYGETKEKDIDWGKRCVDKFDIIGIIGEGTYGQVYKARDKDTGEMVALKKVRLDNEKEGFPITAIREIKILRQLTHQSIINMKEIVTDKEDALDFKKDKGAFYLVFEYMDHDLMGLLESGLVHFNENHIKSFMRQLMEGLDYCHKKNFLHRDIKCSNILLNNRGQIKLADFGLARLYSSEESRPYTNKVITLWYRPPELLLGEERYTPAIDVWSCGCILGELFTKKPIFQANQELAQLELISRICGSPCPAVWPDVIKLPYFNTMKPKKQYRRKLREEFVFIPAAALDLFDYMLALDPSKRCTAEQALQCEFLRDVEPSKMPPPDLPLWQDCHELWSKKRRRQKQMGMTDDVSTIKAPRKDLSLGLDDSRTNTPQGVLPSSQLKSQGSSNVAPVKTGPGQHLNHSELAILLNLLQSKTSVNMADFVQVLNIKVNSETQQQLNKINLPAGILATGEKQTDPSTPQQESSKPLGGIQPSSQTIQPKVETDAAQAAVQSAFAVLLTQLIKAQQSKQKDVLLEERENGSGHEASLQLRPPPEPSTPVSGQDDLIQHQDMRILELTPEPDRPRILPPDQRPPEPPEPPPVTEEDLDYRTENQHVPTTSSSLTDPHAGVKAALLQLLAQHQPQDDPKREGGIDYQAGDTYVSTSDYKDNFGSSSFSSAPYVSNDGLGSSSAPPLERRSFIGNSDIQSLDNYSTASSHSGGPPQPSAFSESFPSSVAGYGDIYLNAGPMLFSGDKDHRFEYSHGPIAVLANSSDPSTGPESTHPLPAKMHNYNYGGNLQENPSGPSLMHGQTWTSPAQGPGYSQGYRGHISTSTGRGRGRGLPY
Description: as §1

IKK-beta = IKK-beta (Homo sapiens (Human), UniProt O14920)
Description: as §1

EPHA4 = EPHA4 (Homo sapiens (Human), UniProt P54764)
Description: as §1

PDPK1 = PDPK1 (Homo sapiens (Human), UniProt O15530)
Description: as §1

YES = YES (Homo sapiens (Human), UniProt P07947)
Description: as §1

CSF1R = CSF1R (Homo sapiens (Human), UniProt P07333)
Chain of CSF1R (P07333 20-972): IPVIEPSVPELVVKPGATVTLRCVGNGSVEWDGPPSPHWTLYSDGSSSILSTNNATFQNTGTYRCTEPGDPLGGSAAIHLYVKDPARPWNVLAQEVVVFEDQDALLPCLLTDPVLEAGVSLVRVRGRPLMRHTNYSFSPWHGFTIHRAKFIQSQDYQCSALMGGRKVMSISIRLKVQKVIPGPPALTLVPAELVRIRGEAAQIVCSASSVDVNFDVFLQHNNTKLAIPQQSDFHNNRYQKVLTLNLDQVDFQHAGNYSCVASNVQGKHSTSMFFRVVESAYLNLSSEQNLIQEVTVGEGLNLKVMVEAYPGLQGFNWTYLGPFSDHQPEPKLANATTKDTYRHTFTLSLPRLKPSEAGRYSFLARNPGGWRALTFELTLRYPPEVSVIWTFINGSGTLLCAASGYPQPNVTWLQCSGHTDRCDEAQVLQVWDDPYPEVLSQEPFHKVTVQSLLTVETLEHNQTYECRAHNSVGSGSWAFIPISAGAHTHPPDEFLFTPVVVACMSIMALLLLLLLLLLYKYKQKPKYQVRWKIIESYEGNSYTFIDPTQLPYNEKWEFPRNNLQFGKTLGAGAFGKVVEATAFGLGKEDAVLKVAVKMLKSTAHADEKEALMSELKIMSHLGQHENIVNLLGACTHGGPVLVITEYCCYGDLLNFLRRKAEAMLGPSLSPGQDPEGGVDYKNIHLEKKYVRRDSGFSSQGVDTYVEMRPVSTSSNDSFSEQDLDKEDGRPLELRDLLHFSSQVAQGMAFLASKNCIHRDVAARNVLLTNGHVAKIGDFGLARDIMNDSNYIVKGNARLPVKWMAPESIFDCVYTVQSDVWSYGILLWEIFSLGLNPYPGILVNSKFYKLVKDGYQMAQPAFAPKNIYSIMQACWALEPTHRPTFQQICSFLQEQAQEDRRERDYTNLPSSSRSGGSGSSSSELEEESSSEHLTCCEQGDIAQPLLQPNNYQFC
Description: as §1

PRKCQ = PRKCQ (Homo sapiens (Human), UniProt Q04759)
Description: as §1

PRKG2 = PRKG2 (Homo sapiens (Human), UniProt Q13237)
Description: as §1

[1] = molecular target: JAK1(JH2domainpseudokinase) (Homo sapiens (Human), UniProt P23458)
Chain of JAK1(JH2domainpseudokinase) (P23458 583-855 limits assumed): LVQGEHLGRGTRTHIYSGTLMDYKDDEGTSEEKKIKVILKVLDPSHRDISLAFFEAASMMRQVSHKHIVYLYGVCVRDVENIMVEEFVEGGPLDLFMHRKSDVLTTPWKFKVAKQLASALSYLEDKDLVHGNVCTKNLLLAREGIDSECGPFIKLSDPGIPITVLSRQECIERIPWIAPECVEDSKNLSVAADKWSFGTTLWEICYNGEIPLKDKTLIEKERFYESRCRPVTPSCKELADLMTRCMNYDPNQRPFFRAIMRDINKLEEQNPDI
Description: as §1

DMPK2 = DMPK2 (Homo sapiens (Human), UniProt Q6DT37)
Description: as §1

PIK3C2B = PIK3C2B (Homo sapiens (Human), UniProt O00750)
Description: as §1

TLK2 = TLK2 (Homo sapiens (Human), UniProt Q86UE8)
Description: as §1

DCAMKL2 = DCAMKL2 (Homo sapiens (Human), UniProt Q8N568)
Description: as §1

MLK1 = MLK1 (Homo sapiens (Human), UniProt P80192)
Chain of MLK1 (P80192 whole entry): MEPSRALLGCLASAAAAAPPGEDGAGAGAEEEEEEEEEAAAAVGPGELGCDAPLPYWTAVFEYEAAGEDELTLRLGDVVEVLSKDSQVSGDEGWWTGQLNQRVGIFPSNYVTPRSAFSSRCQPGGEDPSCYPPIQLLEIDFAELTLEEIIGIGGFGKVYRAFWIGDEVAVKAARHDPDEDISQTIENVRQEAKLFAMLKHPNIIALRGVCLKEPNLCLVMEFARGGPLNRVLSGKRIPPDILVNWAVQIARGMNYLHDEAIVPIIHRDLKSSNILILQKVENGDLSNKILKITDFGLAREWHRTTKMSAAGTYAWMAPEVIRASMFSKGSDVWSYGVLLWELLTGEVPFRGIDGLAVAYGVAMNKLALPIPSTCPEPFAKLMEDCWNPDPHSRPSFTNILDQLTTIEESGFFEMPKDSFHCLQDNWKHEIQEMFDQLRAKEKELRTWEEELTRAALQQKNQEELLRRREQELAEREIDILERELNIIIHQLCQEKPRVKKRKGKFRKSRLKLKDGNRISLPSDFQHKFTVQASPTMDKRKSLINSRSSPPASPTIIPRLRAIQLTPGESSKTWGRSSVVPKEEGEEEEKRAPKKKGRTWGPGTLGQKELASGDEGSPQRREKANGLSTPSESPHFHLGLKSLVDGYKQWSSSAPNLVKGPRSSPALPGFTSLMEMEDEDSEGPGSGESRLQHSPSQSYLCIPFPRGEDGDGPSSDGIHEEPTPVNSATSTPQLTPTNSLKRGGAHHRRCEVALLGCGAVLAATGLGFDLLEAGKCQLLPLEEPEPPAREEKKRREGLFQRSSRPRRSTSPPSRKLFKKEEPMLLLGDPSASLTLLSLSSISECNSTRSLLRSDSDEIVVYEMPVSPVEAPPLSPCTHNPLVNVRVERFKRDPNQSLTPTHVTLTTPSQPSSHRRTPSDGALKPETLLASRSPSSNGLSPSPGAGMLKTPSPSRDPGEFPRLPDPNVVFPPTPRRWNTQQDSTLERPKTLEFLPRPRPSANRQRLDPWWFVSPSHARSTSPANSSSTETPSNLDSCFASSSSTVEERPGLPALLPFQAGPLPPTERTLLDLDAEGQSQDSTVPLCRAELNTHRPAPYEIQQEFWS
Description: as §1

ACVR1B = ACVR1B (Homo sapiens (Human), UniProt P36896)
Chain of ACVR1B (P36896 24-505): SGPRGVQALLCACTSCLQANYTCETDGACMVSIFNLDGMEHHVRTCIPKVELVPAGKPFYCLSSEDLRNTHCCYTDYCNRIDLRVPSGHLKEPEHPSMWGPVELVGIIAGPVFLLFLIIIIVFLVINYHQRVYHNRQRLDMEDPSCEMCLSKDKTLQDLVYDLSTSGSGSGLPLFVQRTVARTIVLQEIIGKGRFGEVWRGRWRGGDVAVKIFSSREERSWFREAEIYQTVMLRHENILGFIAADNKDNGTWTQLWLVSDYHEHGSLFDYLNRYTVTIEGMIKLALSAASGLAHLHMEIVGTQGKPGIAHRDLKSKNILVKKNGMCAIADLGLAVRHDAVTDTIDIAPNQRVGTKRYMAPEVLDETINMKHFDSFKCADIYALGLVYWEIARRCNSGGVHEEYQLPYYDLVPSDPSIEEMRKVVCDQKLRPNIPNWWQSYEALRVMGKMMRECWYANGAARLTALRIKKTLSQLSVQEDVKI
Description: as §1

PIK3CG = PIK3CG (Homo sapiens (Human), UniProt P48736)
Description: as §1

EGFR(L861Q) = EGFR(L861Q) (Homo sapiens (Human), UniProt P00533, L861Q)
Description: as §1

[2] = molecular target: ABL1(T315I)-phosphorylated (Homo sapiens (Human), UniProt P00519, T315I)
Description: as §1

PHKG1 = PHKG1 (Homo sapiens (Human), UniProt Q16816)
Chain of PHKG1 (Q16816 whole entry): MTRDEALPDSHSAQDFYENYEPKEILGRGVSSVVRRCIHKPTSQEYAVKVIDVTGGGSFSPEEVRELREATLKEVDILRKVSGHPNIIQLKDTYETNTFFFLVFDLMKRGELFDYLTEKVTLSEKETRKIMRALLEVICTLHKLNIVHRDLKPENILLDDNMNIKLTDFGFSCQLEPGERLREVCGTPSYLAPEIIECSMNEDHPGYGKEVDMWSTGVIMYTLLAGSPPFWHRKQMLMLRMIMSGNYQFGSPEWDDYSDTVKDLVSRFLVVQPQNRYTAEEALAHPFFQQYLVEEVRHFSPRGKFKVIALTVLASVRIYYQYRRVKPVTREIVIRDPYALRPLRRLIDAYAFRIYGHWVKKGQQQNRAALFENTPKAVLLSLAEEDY
Description: as §1

DYRK2 = DYRK2 (Homo sapiens (Human), UniProt Q92630)
Description: as §1

| SMILES | remaining binding at 1 µM (BRAF) [%] | remaining binding at 1 µM (AURKC) [%] | remaining binding at 1 µM (ERBB4) [%] | remaining binding at 1 µM (AKT1) [%] | remaining binding at 1 µM (DMPK) [%] | remaining binding at 1 µM (CLK2) [%] | remaining binding at 1 µM (JNK2) [%] | remaining binding at 1 µM (FLT3 (D835Y)) [%] | remaining binding at 1 µM (TRKA) [%] | remaining binding at 1 µM (GRK7) [%] | remaining binding at 1 µM (CHEK2) [%] | remaining binding at 1 µM (TTK) [%] | remaining binding at 1 µM (FGFR3 (G697C)) [%] | remaining binding at 1 µM (PCTK2) [%] | remaining binding at 1 µM (NEK10) [%] | remaining binding at 1 µM (PIK3CA(H1047L)) [%] | remaining binding at 1 µM (CSNK1A1) [%] | remaining binding at 1 µM (FLT3) [%] | remaining binding at 1 µM (CDC2L5) [%] | remaining binding at 1 µM (IKK-beta) [%] | other results |
| --- | --- | --- | --- | --- | --- | --- | --- | --- | --- | --- | --- | --- | --- | --- | --- | --- | --- | --- | --- | --- | --- |
| CCN1CCN(Cc2cc(NC(=O)c3ccc(C)c(-c4ccc5nc(NC(=O)C6CC6)cn5c4)c3)cc(C(F)(F)F)c2)CC1 [Compound I-6, 3-(2-(cyclopropanecarboxamido)imidazo[1,2-a]pyridin-6-yl)-N-(3-((4-ethylpiperazin-1-yl)methyl)-5-(trifluoromethyl)phenyl)-4-methylbenzamide] | 21 | 91 | 53 | 90 | 100 | 100 | 27 | 27 | 0 | 97 | 93 | 83 | 69 | 1.3 | 62 | 68 | 100 | 2.5 | 0.75 | 80 | remaining binding at 1 µM (EPHA4): 0%; remaining binding at 1 µM (PDPK1): 83%; remaining binding at 1 µM (YES): 1.6%; remaining binding at 1 µM (CSF1R): 0%; remaining binding at 1 µM (PRKCQ): 74%; remaining binding at 1 µM (PRKG2): 99%; remaining binding at 1 µM [1]: 72%; remaining binding at 1 µM (DMPK2): 100%; remaining binding at 1 µM (PIK3C2B): 100%; remaining binding at 1 µM (TLK2): 98%; remaining binding at 1 µM (DCAMKL2): 100%; remaining binding at 1 µM (MLK1): 94%; remaining binding at 1 µM (ACVR1B): 94%; remaining binding at 1 µM (PIK3CG): 92%; remaining binding at 1 µM (EGFR(L861Q)): 54%; remaining binding at 1 µM [2]: 2.2%; remaining binding at 1 µM (PHKG1): 93%; remaining binding at 1 µM (DYRK2): 92% |
| CCN1CCN(Cc2cc(NC(=O)c3ccc(C)c(-c4ccc5nc(NC(=O)C6CC6)cn5n4)c3)cc(C(F)(F)F)c2)CC1 [Compound I-2, 3-(2-(cyclopropanecarboxamido)imidazo[1,2-b]pyridazin-6-yl)-N-(3-((4-ethylpiperazin-1-yl)methyl)-5-(trifluoromethyl)phenyl)-4-methylbenzamide] | 11 | 84 | 71 | 90 | 87 | 48 | 46 | 23 | 0.75 | 100 | 90 | 83 | 87 | 1.8 | 75 | 89 | 73 | 1 | 0.3 | 50 | remaining binding at 1 µM (EPHA4): 0%; remaining binding at 1 µM (PDPK1): 89%; remaining binding at 1 µM (YES): 4.7%; remaining binding at 1 µM (CSF1R): 0.05%; remaining binding at 1 µM (PRKCQ): 27%; remaining binding at 1 µM (PRKG2): 100%; remaining binding at 1 µM [1]: 100%; remaining binding at 1 µM (DMPK2): 87%; remaining binding at 1 µM (PIK3C2B): 100%; remaining binding at 1 µM (TLK2): 100%; remaining binding at 1 µM (DCAMKL2): 98%; remaining binding at 1 µM (MLK1): 75%; remaining binding at 1 µM (ACVR1B): 99%; remaining binding at 1 µM (PIK3CG): 99%; remaining binding at 1 µM (EGFR(L861Q)): 82%; remaining binding at 1 µM [2]: 1.4%; remaining binding at 1 µM (PHKG1): 99%; remaining binding at 1 µM (DYRK2): 95% |
